Experimental data from patent US11419865B2, “Method for inducing a sustained immune response” (Cytocom Inc., priority 2016, dated 2022).
Where two headings read alike, the source gives them in different places.

How the values were obtained:
AIDS [1] = experiment: 3-month double-blind then open trial in 38 AIDS patients (Kaposi's sarcoma / opportunistic infection); assay type: in vivo, human
[2] = test system: multiple sclerosis (MS) patients; experiment: double-masked, placebo-controlled crossover pilot trial on quality of life in multiple sclerosis, 80 patients; assay type: in vivo, human; conditions: 4.5 mg nightly
From the text: RESULTS: Eighty subjects with clinically definite MS were enrolled, and 60 subjects completed the trial. Ten withdrew before completing the first trial period: 8 for personal reasons, 1 for a non-MS-related adverse event, and 1 for perceived benefit. Database management errors occurred in 4 other subjects, and quality of life surveys were incomplete in 6 subjects for unknown reasons. […] LDN was associated with significant improvement on the following mental health quality of life measures: a 3.3-point improvement on the Mental Component Summary score of the Short Form-36 General Health Survey (p=0.04), a 6-point improvement on the Mental Health Inventory (p<0.01), a 1.6-point improvement on the Pain Effects Scale (p=0.04), and a 2.4-point improvement on the Perceived Deficits Questionnaire (p=0.05). […] Further studies with LDN in MS are warranted.

cancer patients [3] = conditions: cited from earlier work
children with autism = experiment: autism case reports
Hepatitis C = Hepatitis C case reports; assay type: in vivo, human
HIV [4] = experiment: single blind 90 day randomized bridging clinical trial in Nigeria, asymptomatic HIV+ adults on ART; assay type: in vivo, human
Description: The differences in CD4 count, CD4%, hemoglobin, viral load, interferon alpha, and standard chemistry panel were measured between treated versus non-treated groups four times throughout the study. […] When used alone, it appears to slow and/or stop the progression of the disease.

HIV [5] = conditions: 3 mg compounded, with ART, cited from earlier work
AIDS [6] = conditions: 3.0 mg daily at bedtime, 12 weeks, cited from earlier work
cancer patients [7] = experiment: cancer case reports; assay type: in vivo, human
Description: person diagnosed with stage 3-stomach cancer prognosis 6 months to live on Mar. […] 28, 2007. In addition to Immediate release naltrexone patients received chemotherapy and kidney stents inserted. […].
Person diagnosed with stage 4 pleural mesothelioma in December of 2008 and patients after consult with two other doctors it was determined due to the state of the diseases and other health issues to watch the tumors and not do chemotherapy. Prognosis was 6 to 12 months. Patient started 4.5 mg nightly and received on other treatment but did change diet. […] […].
A person diagnosed with stage 4-colon cancer, 2007 which had spread to their lungs and liver, they removed 40% of their colon and began a round of chemotherapy and three surgeries removed 40% of their colon, half is their right lung and 75% of their liver. During the next 18 months received 47 weeks of chemotherapy (a combination of 4 chemo drugs at once). […].
person was diagnosed with stage 3 prostate cancer which they were originally treated for 5 years before began 3 rounds of Docetaxel (Taxotere®). They were prescribed 4.5 mg of […]

Hashimoto's patients = experiment: Hashimoto's thyroiditis case reports
Description: Patient was taking L-thyroxine and pain medications and 75 mg Zoloft.
Patients was taking Synthroid 150 mcg, Compounded T3 25 mcg, Progesterone 150 mg, Plus lots of supplements like Magnesium, D3, Methyl B12, Methyl folate, Selenium, E, Amino Restore, CLA, NAC, DE, Adaptacin.

[8] = test system: patients with hematologic malignancies; experiment: randomized controlled trial of quality of life (EORTC QLQ-C30), 89 hematologic cancer patients; assay type: in vivo, human
Description: 89 patients Hematologic Cancer Patients This was a randomized controlled trial assessing quality of life in patients with hematologic malignancies from a single institute in Hamedan. […] Quality of life was measured using the EORTC QLQ-C30 in four points in time (at admission, 1, 3 and 5 months follow-up).
Data were analyzed to compare quality of life in two groups. In total, 89 patients were studied (45 in treatment group and 44 in placebo group). There were no significant differences between two groups either in demographic and clinical characteristics or in baseline quality of life scores.
This study aimed to investigate its effect on hematologic cancer patients. This was a randomized controlled trial assessing quality of life in patients with hematologic malignancies from a single institute. […] Quality of life was measured using the EORTC QLQ-C30 in four points in time (at admission, 1, 3 and 5 months follow-up). Data were analyzed to compare quality of life in two groups. Totally, 89 patients were studied (45 in treatment group and 44 in placebo group). There were no significant differences between two groups either in demographic and clinical characteristics or in baseline quality of life scores. However, at 1 month, 3 and 5-month follow-up assessments significant differences were observed. […].

[9] = test system: subjects with active Crohn's disease; experiment: randomized placebo-controlled study, forty subjects with active Crohn's disease; assay type: in vivo, human
From the text: Forty subjects with active Crohn's disease were enrolled in the study. […] Providers and patients were masked to treatment assignment. The primary outcome was the proportion of subjects in each arm with a 70-point decline in Crohn's Disease Activity Index score (CDAI). The secondary outcome included mucosal healing based upon colonoscopy appearance and histology. […].

In the case of `O=C1CC[C@@]2(O)[C@H]3Cc4ccc(O)c5c4[C@@]2(CCN3CC2CC2)[C@H]1O5` [Immediate release naltrexone, naltrexone], the “elevated levels of serum alpha interferon (IFN-α) vs placebo” value (AIDS [1]; 1.75 mg nightly at bedtime, 3-month double-blind period, p<0.01) is reported as “significant drop”, the “survival of patients who did not show a decline in IFN-α” value (AIDS [1]; 2 of the 15) is reported as 13% and the “mean IFN-α level after treatment” value (AIDS [1]; 23 patients with decline, from mean 144.9 IU. over a 12-month period) is reported as 11.0 IU. The “survival of patients who showed a decline in IFN-α” value (AIDS [1]; Nineteen of the 23, p<0.01) was 83%, the side effects (AIDS [1]; during the conduct of the trial) was “No side effects were noted” and the “tolerability and serious adverse events” value [2] was “well tolerated, and serious adverse events did not occur”. For the same compound, the “improvement on the Mental Component Summary score of the Short Form-36 General Health Survey” value ([2]; 8 weeks, p=0.04) was 3.3 point, the “disease course, person, adenocarcinoma of the pancreas with liver metastases” value (cancer patients [3]; 4.5 mg once per day at bedtime with i.v. and oral ALA, selenium, silymarin, diet) was “comparatively stable disease for more than a 3-year period and an improved quality of life” and the “follow-up status, person, Follicular Lymphoma” value (cancer patients [3]; 2007 report) was “remains asymptomatic from their disease, 1 year after their last CT/PET imaging”. For the same compound, the “disease outcome, person, Follicular Lymphoma” value (cancer patients [3]; daily in the evening, after 6 months, not compliant with diet, supplement, ALA) was “clinical and radiological remission”, the “initial effect, child, Autism” value (children with autism; 3 mg) was “hyperactivity increased for the first three weeks” and the “side effect, child, Autism” value (children with autism; 5 ml at bedtime) was “a little constipation”. For the same compound, the “Viral load, person, Hepatitis C & stage 4 cirrhosis” value (Hepatitis C; 4.5 mg, by August of 2011) was 8.3 million, the “HCV viral load, person” value (Hepatitis C; May 2010) was 11.400 and the “ultrasound and liver enzymes, person, Hepatitis C” value (Hepatitis C; all other medication stopped) was “No fatty liver, Liver enzymes dropped to normal”. The “HCV viral load, person” value (Hepatitis C; started February of 2009, May 2009, from over a million in January 2009) was 49,000, the “increase in CD4 count” value (HIV [4]; about 4.5 mg single oral dose with ART, at 3 months) was 44% and the BMI (HIV [4]; about 4.5 mg with ART) was “increase in BMI”. For the same compound, the opportunistic infections (HIV [4]; about 4.5 mg with ART) was “reduction in opportunistic infections”, the “improvement in CD4 count vs control group” value (HIV [4]; about 4.5 mg with ART, at 3 months, control 54 subjects) was “significantly greater than the control group” and the “Improvement in CD4%” value (HIV [4]; about 4.5 mg with ART, throughout treatment) was “the increases were statistically significant”. The “improvement in CD4 count vs control group” value (HIV [5]; at 6 months, p=0.041, 51 vs 49 subjects) was “significantly greater than the control group”, the “improvement in CD4 count vs control group” value (HIV [5]; at 9 months, p=0.067) was “marginally” and the “Improvement in CD4%” value (HIV [5]; throughout treatment) was “not statistically significant”. For the same compound, the lymphocyte mitogen responses (AIDS [6]) was “declined on placebo and not on Immediate release naltrexone”, the “pathologically elevated levels of acid-labile alpha interferon” value (AIDS [6]) was “declined significantly” and the “incidence of opportunistic infections (patients)” value (AIDS [6]; placebo 5 out of 16 (31%)) was 0 of the 22. The “tolerance of chemotherapy, person, stage 4-colon cancer” value (cancer patients [7]; 4.5 mg nightly from June of 2007 with chemotherapy) was “able to complete the entire protocol without any major side effects at all”, the “tolerance of chemotherapy, person, stage 3 prostate cancer” value (cancer patients [7]; 4.5 mg nightly with 3 rounds of Docetaxel) was “able to withstand the chemotherapy and their blood work stayed stable throughout the protocol” and the “CAT scans, person, stage 4 pleural mesothelioma” value (cancer patients [7]; 4.5 mg nightly, no chemotherapy, February 2009 and 2010) was “no measurable growth of tumors”. The “disease course, person, stage 4-colon cancer” value (cancer patients [7]; 4.5 mg nightly, scans every six months) was “continued cancer free until June of 2015”, the “CT scan, person, stage 3-stomach cancer” value (cancer patients [7]; 4.5 mg with chemotherapy, September 2007) was “tumors shrunk in half” and the “disease status, person, stage 3-stomach cancer” value (cancer patients [7]; 4.5 mg, December of 2007) was “in remission and stable”. The “CT scan, person, stage 3-stomach cancer” value (cancer patients [7]; 4.5 mg, March 2008) was “tumors had shrunk in half”, the “scan, person, stage 3-stomach cancer” value (cancer patients [7]; 4.5 mg, March of 2009) was “tumors were stable” and the “lab work, person, Hashimoto's” value (Hashimoto's patients; 1.5 mg) was “Latest lab work was normal in all areas”. The “side effect, person, Hashimoto Thyroiditis” value (Hashimoto's patients; 3 mg in morning and 1 mg at night) was “strange dreams”, the “TPO levels, person, Hashimoto's” value (Hashimoto's patients; 4.5 mg with T3/T4 capsules from August 2011, initial 350) was “returned to normal” and the “TgAb, person, Hashimoto's” value (Hashimoto's patients; titrated 1.5, 3, 4.5 mg, from 77) was less than 1. For the same compound, the “social functioning (EORTC QLQ-C30) vs placebo” value ([8]; 3 mg capsules daily plus routine treatment, one month follow-up, p<0.05) was “better condition in the treatment group”, the blood laboratory tests ([8]; 3 mg daily) was “no changes in the blood laboratory tests” and the “social functioning, role functioning, nausea and vomiting and appetite loss vs placebo” value ([8]; 3 mg daily, 3-month follow-up, all p-values<0.05) was “better in the treatment group”. The “physical, social, role functioning, global quality of life, nausea and vomiting and appetite loss vs placebo” value ([8]; 3 mg daily, 5-month follow-up) was “significantly better”, the “subjects with at least a 70-point decline in CDAI scores” value ([9]; 4.5-mg daily oral, placebo 40%, p=0.009) was “Eighty-eight” and the “subjects achieving remission with a CDEIS score<6” value ([9]; after 12 weeks, placebo 8%) was 33%. The “subjects with endoscopic response (5-point decline in CDEIS)” value ([9]; after 12 weeks, placebo 28%, p=0.008) was 78% and the side effects ([9]; vs placebo) was “Fatigue was the only side effect reported that was significantly greater in subjects receiving placebo”.
